Legend:
HepG2 cells [1] = assay: Cellular uptake and intracellular distribution, fluorescence microscopy; format: cell-based, human; settings: SNCPs@st-p53pep 0.02 mg/mL or st-p53pep 2 μM, serum-free medium 4 h
Procedure: (§1) Human liver cancer cell line HepG2 were grown in DMEM containing 10% FBS and 1% penicillin/streptomycin at 37 °C in a humidified atmosphere of 5% CO2. HepG2 cells (1.2 × 10^5 cells/well) were seeded in a 4-well glass plate for 24 h. Then, SNCPs@st-p53pep (0.02 mg/mL) and st-p53pep alone (2 μM) were added to each well in a serum-free medium for 4 h. After incubation, the cells were carefully rinsed with PBS, and the medium was replaced with a serum-containing fresh medium. After the nucleus was stained with Hoechst 33342 staining kit by manufacturer’s protocol, bright field and fluorescence images were obtained by using a DeltaVision Elite Microscopy System (GE Healthcare, USA). To observe the distribution of SNCP8 and st-p53pep in cells, TAMRA-labeled SNCP8@FAM-labeled st-p53pep (0.25 mg/mL) was treated in the same manner instead of SNCP8@st-p53pep. And then, the Mander’s overlap coefficient (MOC) was calculated in the Image J program (ver. 1.52a) via the JACoP plugin to identify co-localization between fluorescence signals over time. […] The cell viability was determined using cell counting kit-8 (CCK-8) assay by monitoring absorbance at 450 and 670 nm wavelength measured using a microplate reader (Molecular Devices, Inc., USA). The EC50 values of SNCPs@st-p53pep were determined by the logistic curve-fitting method with Origin (OriginLab, USA).

[2] = tested on: human liver cancer (HepG2) xenograft; assay: Tumor growth inhibition, intratumoral injection; format: in vivo, Balb/c male nude mice; settings: HepG2 xenograft mice; intratumoral every 3 days, 14 days; 50 mg SNCP8/kg, 5 μmole st-p53pep/kg; n = 3; versus untreated control
Procedure: All of animal experiments were conducted in accordance with the Institutional Animal Care and Use Committees (IACUC) of Seoul National University. 5-week old Balb/c male nude mice were purchased (ORIENT BIO, Korea). Mice were housed in an environmentally controlled room (23 °C, with 55 ± 5% humidity and 12 h / 12 h light–dark cycle). To prepare tumor-bearing mice, a suspension of the HepG2 cells (6 × 10^6 cells) in 100 µL of sterilized PBS was subcutaneously injected (n = 3, biologically independent animals). Tumor-bearing mice were reared until the tumor volumes reach ~50 mm^3 and used for experiments. […] The changes in tumor volume and body weight were monitored over 14 days. Tumor volumes were calculated by using the equation of 1/2 × length × (width)^2, where the length and width are the longest and shortest diameters (mm) of the tumor, respectively. […] Bright field and fluorescence images from mice were obtained overtime for 3 days by using fluorescence in vivo imaging system, FoBI (Neoscience, Korea). The relative intensity of FAM fluorescence attached to st-p53pep was calculated by using the region of interest (ROI) analysis. The half-life of FAM fluorescence decay was determined by exponential curve fitting method with Origin 2017 (OriginLab, USA).

[3] = Water solubility (in words); format: physicochemical
MDM2 in HepG2 cells = assay: Western blot, MDM2 protein level; format: cell-based, human
Procedure: (§2) Cells were lysed with Pro-PREP (IntronBio, Korea) according to the manufacturer’s protocol. The samples were centrifuged at 2000 × g and 4 °C for 15 min. The supernatant was collected to a 1.5 mL ep-tube and stored at −80 °C. After protein quantification using Pierce^TM BCA assay kit (Thermo Fisher Scientific, USA), the same amount of protein was diluted in water containing 5×loading buffer (Biosesang, Korea) and loaded on SDS-PAGE gel (Bio-rad, USA). After electrophoresis in Tris-Glycine SDS buffer at 80 V for 120 min, proteins in a gel were transferred to a nitrocellulose membrane (0.45 μm, Bio-rad, USA) in 1× Tris-Glycine Native Buffer (GenDEPOT, Korea) with 10% methanol at 90 V, and 4 °C for 90 min under stirring condition. The membrane was blocked with 5% milk to inhibit non-specific binding and immersed overnight at 4 °C in the presence of primary antibodies; GAPDH (1:2000, Abcam, USA), p53 (1:1000, Cell signaling, USA), MDM2 (1:1000, Cell signaling, USA), Bcl2 (1:1000, Cell signaling, USA) and CytC (1:1000, Cell signaling, USA). Anti-rabbit goat pAb, horseradish peroxidase (HRP)-linked antibody (1:5000, Abcam, USA) was used as a secondary antibody and the membrane was incubated for 1 h. After the reaction with the detection agent West Pico PLUS (Thermo Fisher Scientific, USA), bands of protein were monitored by a ImageQuant^TM LAS 4000 mini (GE Healthcare, USA). […]

[4] = Whole-body FAM fluorescence decay in tumor after intratumoral injection; format: in vivo, Balb/c male nude mice; settings: for rel. fluor. Int. (FAM): tumor ROI
Procedure: All of animal experiments were conducted in accordance with the Institutional Animal Care and Use Committees (IACUC) of Seoul National University. 5-week old Balb/c male nude mice were purchased (ORIENT BIO, Korea). Mice were housed in an environmentally controlled room (23 °C, with 55 ± 5% humidity and 12 h / 12 h light–dark cycle). To prepare tumor-bearing mice, a suspension of the HepG2 cells (6 × 10^6 cells) in 100 µL of sterilized PBS was subcutaneously injected (n = 3, biologically independent animals). Tumor-bearing mice were reared until the tumor volumes reach ~50 mm^3 and used for experiments. To investigate tumor growth inhibition efficiency, SNCP8@st-p53pep, SNCP8, and st-p53pep alone in 100 μL of PBS solution (50 mg SNCP8/kg, 5 μmole st-p53pep/kg) were directly injected into the tumor. The same volume of PBS solution was also directly treated into the tumor as a control. Intratumoral injection was performed at 3 day intervals. The changes in tumor volume and body weight were monitored over 14 days. Tumor volumes were calculated by using the equation of 1/2 × length × (width)^2, where the length and width are the longest and shortest diameters (mm) of the tumor, respectively. The relative tumor volume was derived from comparing it with the initial tumor volume. To observe sustainability and tumor exposure of st-p53pep in vivo, we used nude mice with HeLa and HepG2 cell xenografts prepared in the same manner as the tumor growth inhibition experiment. TAMRA-labeled SNCP8@ FAM-labeled st-p53pep was treated in the same manner as the tumor growth inhibition experiment instead of SNCP8@st-p53pep. Bright field and fluorescence images from mice were obtained overtime for 3 days by using fluorescence in vivo imaging system, FoBI (Neoscience, Korea). The relative intensity of FAM fluorescence attached to st-p53pep was calculated by using the region of interest (ROI) analysis. The half-life of FAM fluorescence decay was determined by exponential curve fitting method with Origin 2017 (OriginLab, USA).

CytC in HepG2 cells = assay: Western blot, cytochrome c protein level; format: cell-based, human
Procedure: as §2

HepG2 cells [5] = assay: CCK-8 cell viability; format: cell-based, human; settings: 24 h, 50
Procedure: as §1

p53 in HepG2 cells = assay: Western blot, p53 protein level; format: cell-based, human
Procedure: as §2

Bcl2 in HepG2 cells = assay: Western blot, Bcl2 protein level; format: cell-based, human
Procedure: as §2

CC(C)C[C@@H]1NC(=O)[C@H](CC(C)C)NC(=O)[C@H](CCCNC(=N)N)NC(=O)[C@H](Cc2c[nH]c3ccccc23)NC(=O)[C@H](CC(C)C)NC(=O)[C@H](CC(N)=O)NC(=O)[C@H](NC(=O)[C@H](Cc2ccccc2)NC(=O)[C@@H](NC(=O)[C@H](CCC(N)=O)NC(=O)[C@H](CCC(N)=O)NC(=O)[C@H](CO)NC(=O)[C@H](CCC(N)=O)NC(=O)CNC(=O)CNC(=O)c2ccc3c(c2)C(=O)OC32c3ccc(O)cc3Oc3cc(O)ccc32)[C@@H](C)O)CCCCNC(=O)CCc2cn(nn2)CCC[C@@H](C(=O)N[C@@H](CCC(N)=O)C(=O)N[C@@H](CC(N)=O)C(N)=O)NC1=O [st-p53pep]
cellular uptake: green FAM fluorescence in cells (in words) (HepG2 cells [1]): No fluorescence | growth of tumor volume (in words) [2]: no notable difference | solubility in water (in words) [3]: poor water solubility | MDM2 level relative to Control (MDM2 in HepG2 cells; /GAPDH, Control = 1): 0.8607 | MDM2 rel. (/GAPDH) (MDM2 in HepG2 cells; intensity divided by GAPDH): 0.7522 | rel. fluor. Int. (FAM) ([4]; 0 hours after intratumoral injection): 70000 | rel. fluor. Int. (FAM) ([4]; 6 hours after intratumoral injection): 21050 | rel. fluor. Int. (FAM) ([4]; 12 hours after intratumoral injection): 7081 | rel. fluor. Int. (FAM) ([4]; 24 hours after intratumoral injection): 501 | rel. fluor. Int. (FAM) ([4]; 48 hours after intratumoral injection): 1 | rel. fluor. Int. (FAM) ([4]; 72 hours after intratumoral injection): 1 | time until green fluorescence signal in tumor disappeared ([4]; tumor-bearing mouse, intratumoral injection): ≤ 24 h | half-life (t1/2) of green (FAM) fluorescence decay in tumor ([4]; tumor-xenograft mice, intratumoral injection, ROI analysis of whole-body image, exponential fit): 3.5 h | CytC level relative to Control (CytC in HepG2 cells; /GAPDH, Control = 1): 1.304 | CytC rel. (/GAPDH) (CytC in HepG2 cells; intensity divided by GAPDH): 0.81 | cell viability at corresponding dose (HepG2 cells [5]): more than 80% | p53 level relative to Control (p53 in HepG2 cells; /GAPDH, Control = 1): 1.126 | p53 rel. (/GAPDH) (p53 in HepG2 cells; intensity divided by GAPDH): 0.7745 | Bcl2 level relative to Control (Bcl2 in HepG2 cells; /GAPDH, Control = 1): 1.005 | Bcl2 rel. (/GAPDH) (Bcl2 in HepG2 cells; intensity divided by GAPDH): 0.9585

— PMC9356039, “Multifunctional synthetic nano-chaperone for peptide folding and intracellular delivery” (Nature Communications, 2022)
